Experiments:
[1] = test system: breast cancer cells MDA-MB-231 [乳腺癌细胞MDA-MB-231]; assay: MTT antiproliferation assay, MDA-MB-231; type: cell-based; details: Homo sapiens, 48 h
[2] = test system: non-small cell lung cancer cells A549 [非小细胞肺癌细胞A549]; assay: MTT antiproliferation assay, A549; type: cell-based; details: Homo sapiens, 48 h
[3] = test system: colon cancer cells HCT-116 [结肠癌细胞HCT-116]; assay: MTT antiproliferation assay, HCT-116; type: cell-based; details: Homo sapiens, 48 h
[4] = test system: STAT3 phosphorylation [STAT3的磷酸化]; details: background statement; in words; cited from earlier work
[5] = test system: upstream kinase JAK [上游激酶JAK]; details: background statement; in words; cited from earlier work
[6] = test system: tumour cells [肿瘤细胞]; details: background statement, in words; cited from earlier work
[7] = molecular target: upstream kinase Src [上游激酶JAK或Src] (Homo sapiens, UniProt P12931); details: background statement; in words; cited from earlier work
[8] = test system: STAT1 phosphorylation [STAT1的磷酸化]; details: background statement; in words; cited from earlier work

Sequence of upstream kinase Src [上游激酶JAK或Src] (P12931 whole entry): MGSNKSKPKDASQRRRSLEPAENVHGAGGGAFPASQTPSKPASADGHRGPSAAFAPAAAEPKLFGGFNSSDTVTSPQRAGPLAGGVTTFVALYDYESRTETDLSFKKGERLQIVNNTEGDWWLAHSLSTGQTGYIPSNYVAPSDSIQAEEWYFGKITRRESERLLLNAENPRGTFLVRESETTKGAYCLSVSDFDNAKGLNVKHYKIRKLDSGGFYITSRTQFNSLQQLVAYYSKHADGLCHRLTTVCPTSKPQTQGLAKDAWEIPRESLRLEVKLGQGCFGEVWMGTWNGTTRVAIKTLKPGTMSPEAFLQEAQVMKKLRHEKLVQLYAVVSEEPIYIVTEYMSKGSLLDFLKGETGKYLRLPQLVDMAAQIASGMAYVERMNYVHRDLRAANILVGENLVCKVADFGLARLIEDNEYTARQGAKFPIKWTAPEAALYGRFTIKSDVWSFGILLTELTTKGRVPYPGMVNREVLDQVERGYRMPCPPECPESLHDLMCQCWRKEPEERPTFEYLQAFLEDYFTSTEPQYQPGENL

Row | IC50 [1] | IC50 [2] | IC50 [3] | Compound | inhibition of STAT3 phosphorylation [4] | inhibition of upstream kinase JAK [5] | IC50 [6] | inhibition of upstream kinase Src [7] | inhibition of STAT1 phosphorylation [8]
1 | 5.88 µM | 4.46 µM | 4.83 µM | COc1ccc(S(=O)(=O)Nc2ccc(-c3ccc(C#N)c(F)c3)c3ccccc23)cc1 [VI 10] | – | – | – | – | –
2 | – | – | – | COc1ccc(S(=O)(=O)Nc2cc(-c3c(O)ccc4ccccc34)c(O)c3ccccc23)cc1 [C188-9] | 能抑制STAT3的磷酸化 | 无明显抑制作用 | 较高 | 无明显抑制作用 | 有一定的抑制作用
